Reference: ChEMBL document CHEMBL1156579, “Orally active factor Xa inhibitors: investigation of a novel series of 3-amidinophenylsulfonamide derivatives using an amidoxime prodrug strategy” (Bioorg Med Chem Lett, 2008)

Key:
Coagulation factor X = Coagulation factor X (Homo sapiens, UniProt P00742); experiment: Inhibition of human factor 10a by Dixon-plot method
Trypsin = Trypsin (Homo sapiens, UniProt P07477+P07478+P35030); experiment: Inhibition of human trypsin by Dixon-plot method; assay type: protein assay
[1] = Oral bioavailability in rat; assay type: ADME, organism-based; settings: in vivo
Rattus norvegicus = experiment: Stability in iv dosed rat assessed as prodrug conversion; assay type: ADME, organism-based; settings: in vivo
[2] = Total clearance in iv dosed rat; assay type: ADME, organism-based; settings: in vivo
[3] = Systemic clearance in rat; assay type: ADME, organism-based; settings: in vivo
Plasma = experiment: Anticoagulant activity in human plasma assessed as concentration required to double prothrombin time; assay type: functional
Mus musculus = experiment: Antithrombotic activity against thromboplastin-induced lethal thromboembolism in po dosed thrombosis mouse model assessed as survival; assay type: functional
[4] = Oral bioavailability in mouse at 30 mg/kg; assay type: ADME, organism-based; settings: in vivo
Prothrombin = Prothrombin (Homo sapiens, UniProt P00734); experiment: Inhibition of human thrombin by Dixon-plot method
[5] = Oral bioavailability in cynomolgus monkey; assay type: ADME, organism-based, Macaca fascicularis; settings: in vivo
[6] = Oral bioavailability in dog; assay type: ADME, organism-based, Canis lupus familiaris; settings: in vivo
[7] = Oral bioavailability in rabbit; assay type: ADME, organism-based, Oryctolagus cuniculus; settings: in vivo
[8] = Oral bioavailability in mouse; assay type: ADME, organism-based; settings: in vivo

Sequence of Coagulation factor X (P00742 41-179 limits assumed): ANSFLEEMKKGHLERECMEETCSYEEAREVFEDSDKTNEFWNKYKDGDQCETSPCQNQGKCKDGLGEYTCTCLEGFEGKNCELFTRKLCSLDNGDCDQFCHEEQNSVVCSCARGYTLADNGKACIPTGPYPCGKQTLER
Sequence of Coagulation factor X (P00742 235-488 limits assumed): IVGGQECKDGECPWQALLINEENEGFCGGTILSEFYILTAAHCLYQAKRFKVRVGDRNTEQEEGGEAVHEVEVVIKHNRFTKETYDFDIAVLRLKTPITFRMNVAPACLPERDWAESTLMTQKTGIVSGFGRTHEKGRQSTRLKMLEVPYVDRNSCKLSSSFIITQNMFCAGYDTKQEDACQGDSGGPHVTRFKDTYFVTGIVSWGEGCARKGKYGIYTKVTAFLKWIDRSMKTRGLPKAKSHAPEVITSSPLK

## CC(C)c1ccc(CCN(C)S(=O)(=O)c2cc(C(=N)N)ccc2O)cc1
Coagulation factor X
  Ki: 59 nM
Trypsin
  Ki: 770 nM

## CC(C)c1ccc(CCNS(=O)(=O)c2cc(/C(N)=N/O)ccc2O)cc1
[1]
  bioavailability: 6.6%
Coagulation factor X
  Ki: 7300 nM
Rattus norvegicus
  Activity: 1%
[2]
  clearance: 27 mL/min

## CC(C)c1ccc(CCN(CC(=O)O)S(=O)(=O)c2cc(C(=N)N)ccc2O)cc1
[3]
  clearance: 8.1 mL/min
Plasma
  Activity: 1.4 µM
Coagulation factor X
  Ki: 14 nM
[2]
  clearance: 8.1 mL/min

## CCOC(=O)CN(CCc1ccc(C(C)C)cc1)S(=O)(=O)c1cc(/C(N)=N/O)ccc1O
[1]
  bioavailability: < 1%
Coagulation factor X
  Ki: 3700 nM

## CS(=O)(=O)c1ccccc1-c1ccc(CCNS(=O)(=O)c2cc(C(=N)N)ccc2O)c(OCC(=O)O)c1
[2]
  clearance: 7.5 mL/min

## CS(=O)(=O)c1ccccc1-c1ccc(CCNS(=O)(=O)c2cc(C(=N)N)ccc2O)c(NCC(=O)O)c1
Coagulation factor X
  Ki: 5.7 nM
[2]
  clearance: 25 mL/min

## CC(C)(C)c1ccc(CCNS(=O)(=O)c2cc(C(=N)N)ccc2O)cc1
Coagulation factor X
  Ki: 27 nM

## CC(C)c1ccc(CCNS(=O)(=O)c2cc(C(=N)N)ccc2Cl)cc1
Coagulation factor X
  Ki: 3000 nM
Trypsin
  Ki: 4000 nM

## COc1ccc(C(=N)N)cc1S(=O)(=O)NCCc1ccc(C(C)C)cc1
Coagulation factor X
  Ki: 14000 nM

## CCOC(=O)COc1cc(C(C)C)ccc1CCNS(=O)(=O)c1cc(C(=N)NO)ccc1O
Mus musculus
  ED50: 15.8 mg/kg
[1]
  bioavailability: 13%
Coagulation factor X
  Ki: 3500 nM

## CC(C)c1ccc(CCNS(=O)(=O)c2cc(C(=N)N)ccc2O)c(NCC(=O)O)c1
Coagulation factor X
  Ki: 62 nM
[2]
  clearance: 3.2 mL/min

## CC(C)c1ccc(CCNS(=O)(=O)c2cc(C(=N)N)ccc2O)c(OCC(=O)O)c1
Plasma
  Activity: 7.2 µM
Coagulation factor X
  Ki: 51 nM
[4]
  bioavailability: 38%
[2]
  clearance: 1.7 mL/min

## CC(C)c1ccc(CCNS(=O)(=O)c2cc(/C(N)=N/O)ccc2O)c(OCC(=O)O)c1
[1]
  bioavailability: 9.2%
Coagulation factor X
  Ki: > 10000 nM
Rattus norvegicus
  Activity: 57%
[2]
  clearance: 7.5 mL/min

## CC(C)c1ccc(CCNS(=O)(=O)c2cc(C(=N)N)ccc2O)c(NC(=O)C(=O)O)c1
Coagulation factor X
  Ki: 9.7 nM
[2]
  clearance: 20 mL/min

## CS(=O)(=O)c1ccccc1-c1ccc(CCNS(=O)(=O)c2cc(C(=N)N)ccc2O)c(OCC(=O)O)c1.Cl
Plasma
  Activity: 1.01 µM
Trypsin
  Ki: 1170 nM
Prothrombin
  Ki: 57800 nM

## CC(=N)N1CCC(c2ccc(NC(=O)CN(Cc3cccc(OCC(=O)O)c3)c3cccc(C(=N)N)c3)cc2)CC1
[1]
  bioavailability: 0.9%
Plasma
  Activity: 0.84 µM
Trypsin
  Ki: 6170 nM
Prothrombin
  Ki: 26000 nM
[2]
  clearance: 23 mL/min

## CC(C)c1ccc(CCNS(=O)(=O)c2cc(C(=N)N)ccc2O)cc1
[1]
  bioavailability: 3.7%
Plasma
  Activity: 2.6 µM
Coagulation factor X
  Ki: 29 nM
Trypsin
  Ki: 800 nM
Prothrombin
  Ki: > 10000 nM
[2]
  clearance: 27 mL/min

## CCCCOC(=O)COc1cc(-c2ccccc2S(C)(=O)=O)ccc1CCNS(=O)(=O)c1cc(C(=N)NO)ccc1O.Cl
[5]
  bioavailability: 11%
[6]
  bioavailability: 4.9%
[7]
  bioavailability: 23%
[8]
  bioavailability: 15%

## CC(C)c1ccc(CCN(CC(=O)O)S(=O)(=O)c2cc(/C(N)=N/O)ccc2O)cc1
Coagulation factor X
  Ki: 7000 nM
Rattus norvegicus
  Activity: 16%
[2]
  clearance: 13 mL/min

## CC(C)c1ccc(CCNS(=O)(=O)c2cccc(C(=N)N)c2)cc1
Coagulation factor X
  Ki: 2100 nM
Trypsin
  IC50: 9700 nM
Prothrombin
  Ki: > 10000 nM

## CC(C)Oc1ccc(CCNS(=O)(=O)c2cc(C(=N)N)ccc2O)cc1
Coagulation factor X
  Ki: 100 nM
Trypsin
  IC50: 1700 nM
Prothrombin
  Ki: > 10000 nM
